Laboratory results as given in patent US20240208912A1 (Mirati Therapeutics, Inc., priority 2021, published 2024).

Key:
PRMT5/MEP50 complex = target: T1, PRMT5/MEP50 complex (Homo sapiens, UniProt O14744); test: PRMT5:MEP50 HotSpot Assay (full-length histone H2A substrate, plus and minus MTA); format: biochemical; conditions: IC50 + 2 μM MTA, in the presence of 2 μM MTA
T1 construct: purchased Reaction Biology Corporation
Outline: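 Radiometric HotSpot format using recombinant full-length histone H2A as substrate, run with and without MTA. Reactions were stopped and spotted onto filter paper. Tritiated H2A was quantified by scintillation counting.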

[1] = system: HCT116 homozygous MTAP knockout cells; test: Proliferation assay (CellTiter-Glo, 10 days) in HCT116 homozygous MTAP knockout cells; format: cell-based; conditions: CellTiter-Glo after 10 days of treatment, read-out: Proliferation IC50 (nM) HCT116 MTAP_KO
Procedure: HCT116 cells were genetically engineered to knock out the function of both MTAP alleles using a CRISPR/Cas9 system and an sgRNA targeting the MTAP gene. Following Cas9/MTAP sgRNA transduction, clones were screened to confirm that each allele of the MTAP gene had been inactivated (i.e., homozygous MTAP knock out) creating an MTAP-deficient cell.
Control samples were analyzed in parallel.
Briefly, on Day 0, 250 HCT116 parental or HCT116 homozygous MTAP knockout cell were seeded in 96 well plates in McCoy's 5A supplemented with […] fetal bovine serum and pen/strep and the cells were incubated overnight at 37° C. plus 5% CO2.
The following day, cells were treated with DMSO vehicle control or a dose response of PRMT5 inhibitors and incubated at 37 C plus 5% CO2 for five days. On Day 6, the cells were trypsinized and split 1:10 into new 96-well plates with fresh medium containing the same concentration of PRMT5 inhibitor and incubated for an additional 5 days at 37° C. plus 5% CO^2.
On Day 11, the viability of the cells was measured using a CTG assay kit (CellTiter-Glo; Promega cat.no G7573) in accordance with the manufacturer's instructions. The IC50 values for each compound after 10 days of treatment were calculated using GraphPad PRISM software.

T1 sequence (O14744 2-637 limits assumed): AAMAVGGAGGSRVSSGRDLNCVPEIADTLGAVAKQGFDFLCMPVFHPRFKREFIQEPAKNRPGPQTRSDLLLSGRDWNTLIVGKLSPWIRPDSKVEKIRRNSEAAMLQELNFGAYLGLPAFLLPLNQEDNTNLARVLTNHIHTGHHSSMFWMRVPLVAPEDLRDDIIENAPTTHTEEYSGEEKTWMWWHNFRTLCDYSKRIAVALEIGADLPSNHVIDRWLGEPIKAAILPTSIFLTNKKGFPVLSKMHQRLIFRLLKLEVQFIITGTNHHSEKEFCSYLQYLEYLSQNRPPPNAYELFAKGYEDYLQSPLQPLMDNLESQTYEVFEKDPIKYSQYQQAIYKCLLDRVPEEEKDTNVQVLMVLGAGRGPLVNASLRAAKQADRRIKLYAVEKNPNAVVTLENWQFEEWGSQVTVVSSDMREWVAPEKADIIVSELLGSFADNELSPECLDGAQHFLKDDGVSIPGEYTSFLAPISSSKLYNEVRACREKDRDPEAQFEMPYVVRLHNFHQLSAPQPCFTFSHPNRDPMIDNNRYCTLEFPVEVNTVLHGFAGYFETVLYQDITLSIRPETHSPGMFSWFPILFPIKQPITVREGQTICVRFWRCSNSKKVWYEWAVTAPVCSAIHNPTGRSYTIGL
T1 sequence (Q9BQA1 2-342 partner limits assumed): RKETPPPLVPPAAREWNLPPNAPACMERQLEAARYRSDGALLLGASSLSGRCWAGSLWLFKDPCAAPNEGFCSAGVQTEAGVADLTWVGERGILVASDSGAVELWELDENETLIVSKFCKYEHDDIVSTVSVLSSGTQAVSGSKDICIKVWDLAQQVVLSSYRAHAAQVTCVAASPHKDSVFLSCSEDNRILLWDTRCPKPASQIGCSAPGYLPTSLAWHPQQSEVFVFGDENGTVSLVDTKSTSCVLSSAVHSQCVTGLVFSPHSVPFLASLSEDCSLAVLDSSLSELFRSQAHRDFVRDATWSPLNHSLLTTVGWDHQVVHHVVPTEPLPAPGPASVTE

Compound	IC50 (PRMT5/MEP50 complex)	IC50 [1]
Cn1ncc(-c2cc(Cl)c3c(=O)[nH]nc(CN)c3c2)c1-c1c(F)cc2ccccc2c1C#N (single isomer, unassigned) [Example 16-12, (M)-(4-(4-(aminomethyl)-8-chloro-1-oxo-1,2-dihydrophthalazin-6-yl)-1-methyl-1H-pyrazol-5-yl)-3-fluoro-1-naphthonitrile]	26.4 nM	12 nM
Cc1cc(OC2CC2)c(C#N)c(-c2c(-c3ccc4c(=O)[nH]nc(CN)c4c3)cnn2C)c1F (single isomer, unassigned) [Example 16-19, (P)-2-[4-[4-(aminomethyl)-1-oxo-2H-phthalazin-6-yl]-2-methyl-pyrazol-3-yl]-6-(cyclopropoxy)-3-fluoro-4-methyl-benzonitrile]	173 nM	1070 nM
Cc1cc(OC2CC2)c(C#N)c(-c2c(-c3ccc4c(=O)[nH]nc(CN)c4c3)cnn2C)c1F (single isomer, unassigned) [Example 16-20, (M)-2-[4-[4-(aminomethyl)-1-oxo-2H-phthalazin-6-yl]-2-methyl-pyrazol-3-yl]-6-(cyclopropoxy)-3-fluoro-4-methyl-benzonitrile]	36 nM	13 nM
Cn1ncc(-c2ccc3c(=O)[nH]nc(CN)c3c2)c1-c1c(C#N)c(OC2CC2)c2ccccc2c1Cl (single isomer, unassigned) [Example 16-23, (P)-3-[4-[4-(aminomethyl)-1-oxo-2H-phthalazin-6-yl]-2-methyl-pyrazol-3-yl]-4-chloro-1-(cyclopropoxy)naphthalene-2-carbonitrile]	485 nM	538 nM
Cn1ncc(-c2ccc3c(=O)[nH]nc(CN)c3c2)c1-c1c(C#N)c(OC2CC2)c2ccccc2c1Cl (single isomer, unassigned) [Example 16-24, (M)-3-[4-[4-(aminomethyl)-1-oxo-2H-phthalazin-6-yl]-2-methyl-pyrazol-3-yl]-4-chloro-1-(cyclopropoxy)naphthalene-2-carbonitrile]	37.2 nM	61 nM
Cc1cc(OC2CC2)c(C#N)c(-c2c(-c3cc(Cl)c4c(=O)[nH]nc(CN)c4c3)cnn2C)c1F (single isomer, unassigned) [Example 16-25, (P)-2-[4-[4-(aminomethyl)-8-chloro-1-oxo-2H-phthalazin-6-yl]-2-methyl-pyrazol-3-yl]-6-(cyclopropoxy)-3-fluoro-4-methyl-benzonitrile]	964 nM	664 nM
Cc1cc(OC2CC2)c(C#N)c(-c2c(-c3cc(Cl)c4c(=O)[nH]nc(CN)c4c3)cnn2C)c1F (single isomer, unassigned) [Example 16-26, (M)-2-[4-[4-(aminomethyl)-8-chloro-1-oxo-2H-phthalazin-6-yl]-2-methyl-pyrazol-3-yl]-6-(cyclopropoxy)-3-fluoro-4-methyl-benzonitrile]	8.43 nM	17 nM
Cn1ncc(-c2cc(Cl)c3c(=O)[nH]nc(CN)c3c2)c1-c1c(F)c(Cl)cc(OC2CC2)c1C#N (single isomer, unassigned) [Example 16-27, (P)-2-[4-[4-(aminomethyl)-8-chloro-1-oxo-2H-phthalazin-6-yl]-2-methyl-pyrazol-3-yl]-4-chloro-6-(cyclopropoxy)-3-fluoro-benzonitrile]	2230 nM	321 nM
Cn1ncc(-c2cc(Cl)c3c(=O)[nH]nc(CN)c3c2)c1-c1c(F)c(Cl)cc(OC2CC2)c1C#N (single isomer, unassigned) [Example 16-28, (M)-2-[4-[4-(aminomethyl)-8-chloro-1-oxo-2H-phthalazin-6-yl]-2-methyl-pyrazol-3-yl]-4-chloro-6-(cyclopropoxy)-3-fluoro-benzonitrile]	81 nM	10 nM
Cn1ncc(-c2ccc3c(=O)[nH]nc(CN)c3c2)c1-c1c(F)ccc(CC2CC2)c1C#N (single isomer, unassigned) [Example 16-29, (P)-2-(4-(4-(aminomethyl)-1-oxo-1,2-dihydrophthalazin-6-yl)-1-methyl-1H-pyrazol-5-yl)-6-(cyclopropylmethyl)-3-fluorobenzonitrile]	111 nM	292 nM
